Laboratory results: patent US12366579B2, “Sulfur-heterocycle exchange chemistry and uses thereof” (University of Virginia Patent Foundation, priority 2019, dated 2025)
pIC50: −log10 of the molar value.

Tests used:
[1] = target: T1, recombinant GSTP1 lysates (Homo sapiens, UniProt P09211); test: GSTP1 biochemical substrate assay (GSH conjugation to BDNB); conditions: inhibitor 30 min at 37° C.; n=3; read-out: IC50, in vitro potency against GSTP1 by GSH substrate assay
T1 construct: FLAG (C); host or cells: HEK293T, transient transfection; soluble proteome used unpurified
T1 sequence (P09211 whole entry): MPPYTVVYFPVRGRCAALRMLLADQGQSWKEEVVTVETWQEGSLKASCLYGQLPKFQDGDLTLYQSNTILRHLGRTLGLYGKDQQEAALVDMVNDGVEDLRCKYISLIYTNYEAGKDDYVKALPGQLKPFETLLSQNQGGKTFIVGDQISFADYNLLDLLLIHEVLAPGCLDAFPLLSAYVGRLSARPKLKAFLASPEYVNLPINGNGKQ
Procedure: GSTP1 Biochemical Substrate Assay
Recombinant GSTP1-HEK293T soluble cell proteomes were diluted to 1 mg ml^−1 in assay buffer (100 mM NaH2PO4, pH 7.0). Samples were treated with inhibitor at indicated concentrations for 30 min at 37° C. GSH stock solution (250 mM in water) was diluted to 4 mM in assay buffer and 25 μl of diluted GSH solution was added to each sample. A substrate stock solution of 75 mM 1-bromo-2,4-dinitrobenzene […] in ethanol was diluted to 2 mM in assay buffer. Samples (25 μl) were aliquoted into a 96-well plate and spun briefly via centrifuge. Next, 50 μl of 2 mM BDNB was added to each well and the reaction was monitored in kinetic mode by measuring absorbance at 340 nm for 10 min on a BMG Labtech CLARIOstar plate reader (BMG Labtech, Cary, North Carolina, United States of America).

GSTP1 Y8 = target: T2, GSTP1 Y8 (Homo sapiens, UniProt P09211); test: Quantitative chemical proteomics of live SILAC DM93 cells treated with SuTEx fragments; format: cell-based; conditions: 50 μM compound, 1.5 hr, 37° C.
T2 construct: endogenous in cells; host or cells: DM93 melanoma cells (SILAC)
T2 sequence (P09211 whole entry, the tested form may be a part): as the sequence (P09211 whole entry) above
Procedure: Live Cell Evaluation of Sulfonyl-Triazole Fragments
(§1) Cells grown to ˜90% confluency in 10 cm plates were treated with DMSO vehicle or SuTEx fragment (10 μl of 1,000× stock) in serum-free media for the indicated concentrations and times at 37° C. with 5% CO2. After treatment, cells were washed with cold PBS twice before collection and preparation for gel-based chemical proteomic evaluation as described above. For LC-MS studies, protein concentrations were normalized to 2.3 mg ml^−1 and 432 μl (for 1 mg final protein amount) were used for sample preparation as detailed below.
Heavy and light proteomes (432 μl of each) were diluted to 2.3 mg ml^−1 in PBS and sample aliquots (432 μl) were treated with SuTEx fragment at the indicated concentrations (5 μl, 100× stock in DMSO), mixed gently and incubated for 30 min at 37° C. Samples were then treated with HHS-482 (5 μL, 5 mM stock in DMSO) for 30 min at 37° C. Probe-modified proteomes were conjugated to desthiobiotin-PEG3-azide followed by enrichment of probe-modified peptides for nano-electrospray ionization-LC-MS/MS analyses as previously described^57.
Next, SILAC DM93 cells were treated with JWB152 or JWB198 to determine whether these SuTEx fragments could ligand Y8 of endogenous GSTP1 in living systems (50 μM compound, 1.5 hr, 37° C.). Cells were pretreated with DMSO vehicle or SuTEx fragments followed by cells lysis, HHS-482 labeling of proteomes, and quantitative chemical proteomics.

human GSTP1 (hGSTP1) = target: T3, human GSTP1 (hGSTP1) (Homo sapiens, UniProt P09211); test: Gel-based competitive chemical proteomic screen with HHS-482, recombinant hGSTP1-HEK293T soluble proteomes; format: binding; conditions: fragment 50 μM, 30 min, 37° C.
T3 construct: FLAG (C); host or cells: HEK293T, transient transfection; soluble proteome used unpurified
T3 sequence (P09211 whole entry, the tested form may be a part): as the sequence (P09211 whole entry) above
Procedure: (§2) Gel-Based Chemical Proteomic Assay
(§3) Cell pellets were lysed in PBS and fractionated (100,000×g, 45 min, 4° C.) to generate soluble and membrane fractions. Protein concentrations were determined using Bio-Rad DC protein assay (Bio-Rad Laboratories, Inc., Hercules, California, United States of America), and adjusted to 1 mgml^−1 in PBS. Proteome samples (49 μl aliquots) were treated with DMSO vehicle or indicated concentration of SuTEx fragment (1 μL, 50× stock in DMSO) for 30 min at 37° C. Samples were then treated with HHS-482 probe (1 μL, 2.5 mM stock in DMSO) for 30 min at 37° C. Probe labeled samples were conjugated to rhodamine-azide (1 μL, 1.25 mM stock; final concentration of 25 μM) by copper-catalyzed azide-alkyne cycloadditions (CuAAC) for 1 h at room temperature followed by SDS-PAGE and in-gel fluorescence scanning as previously described^57.

human DPP3 (hDPP3) = target: T4, human DPP3 (hDPP3) (Homo sapiens, UniProt Q9NY33); test: Gel-based competitive chemical proteomic screen with HHS-482, recombinant hDPP3-HEK293T soluble proteomes; format: binding; conditions: 50 μM fragment, 37° C., 30 min; also substantial proteome cross-reactivity
T4 construct: FLAG (C); host or cells: HEK293T, transient transfection; soluble proteome used unpurified
T4 sequence (Q9NY33 1-737): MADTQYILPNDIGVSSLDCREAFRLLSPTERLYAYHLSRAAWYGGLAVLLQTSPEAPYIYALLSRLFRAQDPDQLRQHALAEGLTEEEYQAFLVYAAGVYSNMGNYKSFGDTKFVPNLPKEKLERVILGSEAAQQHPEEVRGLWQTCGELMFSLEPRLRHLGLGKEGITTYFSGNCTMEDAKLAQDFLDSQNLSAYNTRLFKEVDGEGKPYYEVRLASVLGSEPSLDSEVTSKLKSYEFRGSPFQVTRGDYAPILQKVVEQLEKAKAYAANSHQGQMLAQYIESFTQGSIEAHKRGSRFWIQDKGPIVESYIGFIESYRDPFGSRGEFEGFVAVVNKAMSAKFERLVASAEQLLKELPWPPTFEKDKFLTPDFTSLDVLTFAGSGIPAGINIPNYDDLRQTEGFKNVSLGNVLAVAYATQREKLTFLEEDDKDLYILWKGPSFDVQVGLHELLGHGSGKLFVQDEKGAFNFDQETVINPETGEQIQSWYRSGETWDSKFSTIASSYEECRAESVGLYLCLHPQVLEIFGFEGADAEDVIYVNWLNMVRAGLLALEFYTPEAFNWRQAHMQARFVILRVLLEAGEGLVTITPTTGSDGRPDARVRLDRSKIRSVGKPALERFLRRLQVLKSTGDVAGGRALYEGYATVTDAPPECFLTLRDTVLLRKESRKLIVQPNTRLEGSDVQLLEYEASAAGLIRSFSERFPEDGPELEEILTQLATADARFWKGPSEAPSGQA
Procedure: as §2, §3

GSTP1 = target: T5, GSTP1 (Homo sapiens, UniProt P09211); test: Gel-based evaluation of proteomes from recombinant GSTP1-HEK293T cells treated with SuTEx fragments; format: cell-based; conditions: 50 μM compounds, 4 hr
T5 construct: FLAG (C); expressed in transfected cells; host or cells: HEK293T
T5 sequence (P09211 whole entry, the tested form may be a part): as the sequence (P09211 whole entry) above
Procedure: as §3, §1

[2] = target: T6, membrane proteins in human cell proteomes (Homo sapiens, UniProt Q9BQB6); test: Chemical proteomic identification of membrane protein lysine sites modified by TH211; format: binding; conditions: VKOR1 human, Uniprot Q9BQB6, amino acid modified K
T6 construct: endogenous in cells
T6 sequence (Q9BQB6 whole entry): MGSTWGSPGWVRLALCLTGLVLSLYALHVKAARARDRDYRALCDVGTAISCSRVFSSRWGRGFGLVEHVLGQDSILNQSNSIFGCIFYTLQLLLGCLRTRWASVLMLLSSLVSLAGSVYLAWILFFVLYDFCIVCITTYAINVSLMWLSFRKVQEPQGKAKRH
Procedure: (§4) The light proteome aliquots (2.3 mg/mL, 432 μL) were treated with the probe (5 μL, 100× fresh stock in DMSO) and the heavy proteome aliquots were treated with either the same probe or DMSO (no probe) at 37° C. for 1 h. Then the samples were subjected to click reaction with the desthiobiotin-PEG3-azide (10 mM in DMSO, 10 μL, final concentration 200 μM) in the presence of TCEP (50 mM, 10 μL), TBTA (1.7 mM, 33 μL) and CuSO4 (50 mM, 10 μL) at room temperature for 1 h. The light and the heavy were mixed in the chloroform-methanol extraction step. The subsequent steps including reduction with dithiothreitol, alkylation with iodoacetamide, digestion with Trypsin/Lys-C, enrichment with avidin beads were conducted as previously described.^72,51
(§5) Data acquisition: The enriched peptide samples were analyzed by LC-MS/MS on an Easy-nLC 1200 (Thermo Scientific, Waltham, Massachusetts, United States of America) coupled with an Orbitrap Q Exactive Plus mass spectrometer (Thermo Scientific, Waltham, Massachusetts, United States of America). […] A top 10 data-dependent acquisition method was used, which consisted of one full scan […] scan (m/z 375-1,500) followed by ten MS2 scans of the most abundant ions recorded in the […] scan.
(§6) Data analysis: Identification of peptides and target proteins from the LC-MS/MS raw data was achieved using the Byonic software package (Protein Metrics Inc., Cupertino, California, United States of America) to search against a modified human protein database (UniProt human protein database, angiotensin I and vasoactive intestinal peptide standards; 40660 proteins) with parameters previously described.^72 Identification of probe-modified peptides was accomplished with variable (common) modification of +635.27374 Da for TH211, +608.26284 for TH214, +578.25228 for TH216 on tyrosine and lysine residues. Other added mass such as variable methionine oxidation (+15.9949 Da), fixed cysteine carbamidomethylation (+57.02146 Da) and the SILAC heavy amino acids (+10.0083 Da for R, +8.0142 Da for K) were included in search. The results from Byonic search were imported into Skyline-daily to determine SILAC ratio (SR) of light/heavy peptides.^51 To account for variations in mixing and sample preparation, SRs of peptide from probe/no-probe (the light was treated with the probe while the heavy was treated with DMSO) were normalized to those from probe/probe (both the light and the heavy were treated with the probe). Unless otherwise stated, the results from Skyline-daily output were filtered in R to keep peptides of high quality that meet the following criteria: Byonic score ≥300; a precursor mass error within 5 ppm; normalized SR≥5, with both isotop dot-product (iDOTP) and ratio dot-product (rDOTP)≥0.8. Comparison of probe-modified sites across all probes and cells were performed using the R package ggplot2 and Venn diagrams were generated with the VennDiagram R package.^72 Other bioinformatics analysis such as the domain enrichment analysis and the DrugBank analysis were performed as previously described.^72

[3] = target: T7, membrane proteins in human cell proteomes (Homo sapiens, UniProt Q02750); test: as above; format: binding; conditions: MP2K1 human, Uniprot Q02750; amino acid modified K
T7 construct: endogenous in cells
T7 sequence (Q02750 whole entry): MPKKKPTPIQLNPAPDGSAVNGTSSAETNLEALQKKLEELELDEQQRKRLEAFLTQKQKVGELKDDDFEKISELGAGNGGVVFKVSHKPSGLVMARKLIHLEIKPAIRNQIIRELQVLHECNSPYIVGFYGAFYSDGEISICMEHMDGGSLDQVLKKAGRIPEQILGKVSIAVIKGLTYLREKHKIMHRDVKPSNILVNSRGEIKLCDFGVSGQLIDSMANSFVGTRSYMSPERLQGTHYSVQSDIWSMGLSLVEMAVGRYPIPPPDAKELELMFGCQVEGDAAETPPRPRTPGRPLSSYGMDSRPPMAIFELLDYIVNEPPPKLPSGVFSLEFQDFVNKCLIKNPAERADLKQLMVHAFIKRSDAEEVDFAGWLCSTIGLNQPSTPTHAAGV
Procedure: as §4, §5, §6

[4] = target: T8, membrane proteins in human cell proteomes (Homo sapiens, UniProt P51970); test: as above; format: binding; conditions: NDUA8 human, Uniprot P51970; amino acid modified K
T8 construct: endogenous in cells
T8 sequence (P51970 whole entry): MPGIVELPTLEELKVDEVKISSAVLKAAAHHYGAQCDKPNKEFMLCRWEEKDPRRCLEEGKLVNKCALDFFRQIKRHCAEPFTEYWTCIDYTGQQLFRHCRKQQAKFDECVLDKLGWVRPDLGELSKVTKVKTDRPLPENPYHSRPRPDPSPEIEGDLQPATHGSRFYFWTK
Procedure: as §4, §5, §6

[5] = system: membrane proteins in human cell proteomes; test: as above; format: binding; conditions: amino acid modified K
Procedure: as §4, §5, §6

[6] = target: T9, membrane proteins in human cell proteomes (Homo sapiens, UniProt Q9P032); test: as above; format: binding; conditions: NDUF4 human, Uniprot Q9P032; amino acid modified K
T9 construct: endogenous in cells
T9 sequence (Q9P032 whole entry): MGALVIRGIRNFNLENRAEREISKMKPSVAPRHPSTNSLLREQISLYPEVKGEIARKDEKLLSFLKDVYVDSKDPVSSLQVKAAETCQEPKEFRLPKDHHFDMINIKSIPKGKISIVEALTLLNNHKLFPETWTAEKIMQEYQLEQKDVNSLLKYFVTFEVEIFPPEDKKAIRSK
Procedure: as §4, §5, §6

[7] = target: T10, recombinant human diacylglycerol kinase-alpha (DGKA) (Homo sapiens, UniProt P23743); test: Gel-based probe labeling of recombinant DGKA with TH SuTEx probes; format: binding; conditions: FIG. 39D, left panel
T10 construct: FLAG (N); made in house; host or cells: HEK293T, transient transfection; lysate used unpurified
T10 sequence (P23743 whole entry): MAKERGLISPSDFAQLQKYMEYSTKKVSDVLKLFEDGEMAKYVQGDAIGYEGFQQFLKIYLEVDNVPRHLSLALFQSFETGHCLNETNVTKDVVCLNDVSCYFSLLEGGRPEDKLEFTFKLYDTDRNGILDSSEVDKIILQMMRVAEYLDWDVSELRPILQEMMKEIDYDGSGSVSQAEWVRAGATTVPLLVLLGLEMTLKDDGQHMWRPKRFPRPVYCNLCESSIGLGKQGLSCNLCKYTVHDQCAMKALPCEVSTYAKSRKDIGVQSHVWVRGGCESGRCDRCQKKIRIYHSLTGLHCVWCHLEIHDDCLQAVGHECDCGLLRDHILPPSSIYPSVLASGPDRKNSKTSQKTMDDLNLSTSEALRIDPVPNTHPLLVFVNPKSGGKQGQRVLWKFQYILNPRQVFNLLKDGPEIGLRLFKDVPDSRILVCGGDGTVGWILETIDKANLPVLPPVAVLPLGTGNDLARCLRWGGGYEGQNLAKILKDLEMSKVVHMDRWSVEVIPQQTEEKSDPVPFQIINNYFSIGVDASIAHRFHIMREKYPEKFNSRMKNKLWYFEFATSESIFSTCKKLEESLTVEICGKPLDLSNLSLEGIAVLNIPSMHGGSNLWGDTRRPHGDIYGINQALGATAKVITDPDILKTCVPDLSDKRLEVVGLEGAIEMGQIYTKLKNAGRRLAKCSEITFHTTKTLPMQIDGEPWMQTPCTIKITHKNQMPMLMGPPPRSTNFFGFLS
Procedure: as §2
Proteome aliquots (2 mg/mL, 49 μL) were treated with probes at indicated concentration (1 μL, 50× stock in DMSO) at 37° C. for 1 h. The subsequent conjugation with fluorophore was accomplished by copper-catalyzed azide-alkyne cycloaddition (CuAAC) with rhodamine-azide (TAMRA-azide, 1.25 mM, 1 μL, final concentration of 25 μM) in the presence of tris(2-carboxyethyl)phosphine (TCEP, 50 mM fresh in water, 1 μL, final concentration of 1 mM), tris[(1-benzyl-1H-1,2,3-triazol-4-yl)methyl]amine (TBTA, 1.7 mM in 4:1 t-butanol/DMSO, 3 μL, final concentration of 100 μM) and CuSO4 (50 mM, 1 μL, final concentration of 1 mM). For samples of live cell treatment, it started with click reaction without the step of the probe treatment in vitro. After 1 h incubation at room temperature, reactions were quenched by adding 4×SDS-PAGE loading buffer and beta-mercaptoethanol (17 μL) and samples were resolved by SDS-PAGE followed by in-gel fluorescence scanning.

| Structure (SMILES) | pIC50 [1] | blockade of HHS-482 labeling of native GSTP1 Y8 in live cells (GSTP1 Y8) | block of HHS-482 labeling of GSTP1 (human GSTP1 (hGSTP1)) | competition against recombinant DPP3 (human DPP3 (hDPP3)) | HHS-482 labeling of GSTP1 after live cell treatment (GSTP1) | Modified Amino Acid Number ([2]; lysine residue 152) | Modified Amino Acid Number ([2]; lysine residue 159) | Modified Amino Acid Number [3] | Modified Amino Acid Number [4] | Modified Amino Acid Number ([5]; NDUA5 human, Uniprot Q16718) | Modified Amino Acid Number ([5]; NDUB3 human, Uniprot O42676) | Modified Amino Acid Number ([5]; NU5M human, Uniprot P03915) | Modified Amino Acid Number ([5]; PYRD human, Uniprot Q02127) | Modified Amino Acid Number [6] | fluorescent labeling of recombinant human DGKA [7] |
| --- | --- | --- | --- | --- | --- | --- | --- | --- | --- | --- | --- | --- | --- | --- | --- |
| N#Cc1ccc(S(=O)(=O)n2cnc(-c3ccc(C(F)(F)F)cc3)n2)cc1 [JWB152, 4-((3-(4-(Trifluoromethyl)phenyl)-1H-1,2,4-triazol-1-yl)sulfonyl)benzonitrile] | 4.64 | ~20% | block HHS-482 labeling to levels comparable with Y8F mutant | potent competition | reduced HHS-482 labeling |  |  |  |  |  |  |  |  |  |  |
| C#CCNC(=O)c1ccc(S(=O)(=O)n2cc(CCN3CCC(=C(c4ccc(F)cc4)c4ccc(F)cc4)CC3)nn2)cc1 [TH211, 4-((4-(2-(4-(Bis(4-fluorophenyl)methylene)piperidin-1-yl)ethyl)-1H-1,2,3-triazol-1-yl)sulfonyl)-N-(prop-2-yn-1-yl)benzamide] |  |  |  |  |  | 152 | 159 | 97 | 172 | 30 | 39 | 455 | 166 | 24 | concentration dependent manner |
